Results from ChEMBL document CHEMBL1201862, “PubChem BioAssay data set” (2004).
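1) Cells in 96-well plates. 2) Compound, 48 h, 5 concentrations. 3) Linear interpolation between surrounding doses. 4) Unreached endpoint = highest concentration. GI50 is the concentration that inhibits growth by half.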 Activity calls are given as the source filed them. Cut-off read from the data, not from the text of the source: active = GI50 up to about 1.1 µM and inactive = higher.

Legend:
Assay in all cases: NCI tumour cell line growth inhibition, 48 h
U-251 = system: U-251
BT-549 = system: BT-549
SW-620 = system: SW-620
T47D = system: T47D
OVCAR-3 = system: OVCAR-3
CCRF-CEM = system: CCRF-CEM
UACC-257 = system: UACC-257
ACHN = system: ACHN
RPMI-8226 = system: RPMI-8226
SF-539 = system: SF-539
MDA-N = system: MDA-N
KM12 = system: KM12
786-0 = system: 786-0
OVCAR-4 = system: OVCAR-4
OVCAR-5 = system: OVCAR-5
DU-145 = system: DU-145
MDA-MB-435 = system: MDA-MB-435
A498 = system: A498
SK-MEL-28 = system: SK-MEL-28
SNB-19 = system: SNB-19

Measured: GI50

O=c1[nH]nc(Cc2ccc(Cl)cc2)n1/N=C/c1cccs1
inactive: U-251 28.4 µM | BT-549 24.9 µM | SW-620 > 100 µM | T47D > 100 µM | OVCAR-3 > 100 µM | CCRF-CEM > 100 µM | UACC-257 > 100 µM | ACHN 75.7 µM | RPMI-8226 > 100 µM | SF-539 41.3 µM | MDA-N > 100 µM | KM12 > 100 µM | 786-0 26.6 µM | OVCAR-4 > 100 µM | OVCAR-5 73.3 µM | DU-145 99.8 µM | MDA-MB-435 > 100 µM | A498 29.1 µM | SK-MEL-28 > 100 µM | SNB-19 20.4 µM

Oc1c(C2=NNC(c3ccc(Cl)cc3Cl)C2)ccc2ccccc12 (stereo unspecified)
inactive: U-251 32.5 µM | BT-549 69.2 µM | SW-620 35.9 µM | T47D 62.2 µM | OVCAR-3 20.1 µM | CCRF-CEM 5.26 µM | UACC-257 42.3 µM | ACHN 38.5 µM | RPMI-8226 32 µM | SF-539 30.5 µM | MDA-N 19.5 µM | KM12 26.2 µM | 786-0 31.5 µM | OVCAR-4 58.6 µM | OVCAR-5 42.7 µM | DU-145 64.9 µM | MDA-MB-435 22.8 µM | A498 71.4 µM | SK-MEL-28 45.7 µM

COc1ccc2c(c1)C(N)=C(c1ccccc1OC)C2=O
inactive: U-251 > 100 µM | BT-549 > 100 µM | SW-620 > 100 µM | T47D > 100 µM | OVCAR-3 > 100 µM | CCRF-CEM > 100 µM | UACC-257 > 100 µM | ACHN > 100 µM | RPMI-8226 > 100 µM | SF-539 > 100 µM | MDA-N > 100 µM | KM12 76.6 µM | 786-0 > 100 µM | OVCAR-4 99.5 µM | OVCAR-5 > 100 µM | DU-145 > 100 µM | MDA-MB-435 53.6 µM | A498 > 100 µM | SK-MEL-28 > 100 µM | SNB-19 > 100 µM

O=C(O)c1ccccc1NCn1c(=S)sc2ccccc21
inactive: U-251 47.3 µM | BT-549 > 100 µM | SW-620 36 µM | T47D 37.1 µM | OVCAR-3 30.6 µM | CCRF-CEM 23.4 µM | UACC-257 31.8 µM | ACHN 35.6 µM | RPMI-8226 32.3 µM | SF-539 18.3 µM | MDA-N > 100 µM | KM12 63 µM | 786-0 54.3 µM | OVCAR-4 56 µM | OVCAR-5 > 100 µM | DU-145 37.2 µM | MDA-MB-435 83 µM | A498 > 100 µM | SK-MEL-28 > 100 µM | SNB-19 76.7 µM

O=C1NC2(CN3CCC2CC3)C(=O)N1CN(Cc1ccccc1)c1ccccc1 (stereo unspecified)
inactive: U-251 > 100 µM | BT-549 > 100 µM | SW-620 31.7 µM | T47D 39 µM | OVCAR-3 > 100 µM | UACC-257 46 µM | ACHN 72.8 µM | RPMI-8226 28.2 µM | SF-539 93.8 µM | MDA-N > 100 µM | KM12 > 100 µM | 786-0 > 100 µM | OVCAR-4 > 100 µM | OVCAR-5 > 100 µM | DU-145 48.4 µM | MDA-MB-435 > 100 µM | A498 > 100 µM | SK-MEL-28 > 100 µM | SNB-19 > 100 µM

CC12CCC([C@H](C(O)C3CCCCC3)C1=O)C2(C)C (stereo partly specified)
inactive: U-251 > 100 µM | BT-549 > 100 µM | SW-620 > 100 µM | T47D > 100 µM | OVCAR-3 > 100 µM | CCRF-CEM 31.6 µM | UACC-257 > 100 µM | ACHN > 100 µM | RPMI-8226 49.4 µM | SF-539 > 100 µM | MDA-N > 100 µM | KM12 > 100 µM | 786-0 > 100 µM | OVCAR-4 > 100 µM | OVCAR-5 > 100 µM | DU-145 > 100 µM | MDA-MB-435 > 100 µM | A498 > 100 µM | SNB-19 > 100 µM

N#CCCN(CCC#N)c1ccc(/C=C2\N=C(c3ccccc3)N(c3ccc(F)cc3)C2=O)cc1
inactive: U-251 > 100 µM | BT-549 > 100 µM | SW-620 > 100 µM | T47D > 100 µM | OVCAR-3 > 100 µM | UACC-257 > 100 µM | ACHN > 100 µM | RPMI-8226 > 100 µM | SF-539 > 100 µM | MDA-N > 100 µM | KM12 > 100 µM | 786-0 > 100 µM | OVCAR-4 > 100 µM | OVCAR-5 > 100 µM | DU-145 > 100 µM | MDA-MB-435 > 100 µM | A498 > 100 µM | SK-MEL-28 > 100 µM | SNB-19 > 100 µM
